From article PMC5104425, “A Novel Selective Inhibitor of Delta-5 Desaturase Lowers Insulin Resistance and Reduces Body Weight in Diet-Induced Obese C57BL/6J Mice” (PLoS ONE, 2016)

What was measured:
rat D9D = biological target: T1, rat D9D (Rattus norvegicus, UniProt P07308); test: In vitro enzyme assay for desaturase activity (hepatic microsomes), D9D; type: biochemical
T1 construct: using hepatic microsomes prepared from SD rats; from tissue; host or cells: liver microsomes of SD rats (CLEA, Japan)
T1 sequence (P07308 1-358): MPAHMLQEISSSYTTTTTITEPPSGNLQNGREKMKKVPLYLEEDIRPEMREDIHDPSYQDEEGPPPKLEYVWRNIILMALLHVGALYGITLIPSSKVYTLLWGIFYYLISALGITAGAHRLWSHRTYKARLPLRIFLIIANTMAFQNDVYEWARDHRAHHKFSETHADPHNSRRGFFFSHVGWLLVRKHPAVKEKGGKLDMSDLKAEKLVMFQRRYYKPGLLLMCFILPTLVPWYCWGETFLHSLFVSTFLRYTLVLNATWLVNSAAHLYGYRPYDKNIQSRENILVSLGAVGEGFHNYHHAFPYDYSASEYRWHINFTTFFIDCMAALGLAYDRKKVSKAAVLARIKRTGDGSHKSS
Method: Therefore, we also confirmed that compound-326 has no effect on D9D activity. Inhibitory activity of compound-326 on rat D5D, D6D, and D9D was evaluated using hepatic microsomes prepared from SD rats (CLEA, Japan) as described previously. Assays were performed in a total volume of 30 μL in 96-well plates in a buffer containing 100 mM NaHPO4, 150 mM KCl, 10 mM NaF, 1.5 mM glutathione, 3 mM MgCl2, 1 mM NADH, 3 mM ATP, 0.3 mM CoA-SH, and 0.1% fatty acid free bovine serum albumin (BSA, Sigma, St. Louis, MO); and 0.1 μCi/well of [^14C] DGLA or [^14C] linoleic acids (ARC, St. Louis, MO) were used as substrates for measuring D5D and D6D activities, respectively. After pre-incubation of the test compound with rat liver microsomes (final 1.0 mg/mL) for 5 min, the reaction was started by the addition of NADH, ATP, and the substrates, and the reaction mixture was incubated for another 120 min at room temperature. For D9D assay, [^14C] stearoyl-CoA (PerkinElmer, Waltham, MA) was used in the absence of NADH, ATP, and CoA-SH, and D9D enzyme reaction was performed for 30 min. The reactions were then terminated by the addition of 0.63 N NaOH. […] 2.3 (Fujifilm) and IC50 values were determined using the conversion ratio from the radioactive substrates (20:3n6, 18:2n6 and 18:0) to the products (20:4n6, 18:3n6 and 18:1n9).

DIO mice [1] = test: Anti-obesity effects in DIO mice, 6-week treatment (HFD D12492): BW, calorie intake, observations; type: in vivo, C57BL/6J mice
Method: (§1) In this report, we performed 3 independent studies in DIO mice to characterize anti-obesity effects of our D5D specific inhibitor. Male C57BL/6J mice were obtained from Charles River Laboratories (Yokohama, Japan) or CLEA Japan (Osaka, Japan). The mice were fed a laboratory chow and water ad libitum and housed in a 12-h light/dark cycle. Compound or vehicle was administered once daily between 15: 00–19:00 by oral gavage. Body weight (BW) and food intake were monitored throughout the experiment.
Mice were fed a high-fat diet (HFD) that has 60% kcal from fat and contains 0.09% (w/w) AA (D12492; Research diets, Inc., see S1 Table for fatty acid profile) from 5 weeks of age, and they were divided into 5 groups (7 animals per group) at 11 weeks of age based on BW and daily food intake. In this experiment, 30 mg/kg sibutramine, a […], was used as a positive control for anti-obesity effects. Mice were orally administered compound-326 at doses of 0.1, 1, and 10 mg/kg, sibutramine at a dose of 30 mg/kg, or vehicle for 6 weeks. After 6 weeks, blood concentrations of DGLA and AA under non-fasting condition were evaluated as pharmacodynamics (PD) markers, and oral glucose tolerance test (OGTT) was performed.

DIO mice [2] = test: Established DIO mice (HFD D12079B for 50 weeks), 11-week treatment: BW, calorie intake, fat mass; type: in vivo, C57BL/6J mice
Method: as §1
To evaluate the effect on daily EE, DIO mice fed a HFD that has 41% kcal from fat and contains no AA (D12079B; Research diets, Inc., see S1 Table for fatty acids composition) for 50 weeks were used. At 55 weeks of age, DIO mice were divided into two weight-matched groups (7 animals per group) and treated with vehicle or 10 mg/kg compound-326 for 11 weeks. […] Indirect calorimetry test was performed on day1, 8, 15, 21, and 56 during the study. Daily EE was analyzed using ANCOVA with body mass as covariate. After the treatment period, mice were sacrificed and fat tissues were harvested to evaluate the weights.

**Q.** Which results are given for `O=C1Cc2c(nc(OCC(F)(F)C(F)(F)F)n(-c3ccc(OCC(F)(F)F)cc3)c2=O)N1` [Compound-326, 2-(2,2,3,3,3-Pentafluoropropoxy)-3-[4-(2,2,2-trifluoroethoxy)phenyl]-5,7-dihydro-3H-pyrrolo[2,3-d]pyrimidine-4,6-dione]?
**A.** IC50 (rat D9D; Enzyme (hepatic microsomes), rat): > 10 µM; effect on D9D activity (rat D9D; species not given): no effect; BW (DIO mice [1]; compound-326 10 mg/kg p.o. once daily, 6 weeks): gradual decrease in BW; abnormal findings such as behavioral changes, diarrhea, or steatorrhea (DIO mice [1]; compound-326 0.1-10 mg/kg p.o., 6 weeks): No abnormal findings; daily calorie intake (DIO mice [1]; compound-326 at all doses (0.1, 1, 10 mg/kg), slight decrease at 10 mg/kg): not altered significantly; BW (DIO mice [1]; compound-326 lower doses (0.1 and 1 mg/kg) p.o., 6 weeks): not effective; daily calorie intake (DIO mice [2]; 10 mg/kg p.o., 11 weeks): slightly decreased until day 21, followed by a trend toward increase; cumulative calorie intake (DIO mice [2]; 10 mg/kg p.o., 11 weeks (data not shown)): no appreciable change; BW (DIO mice [2]; 10 mg/kg p.o., 11 weeks, from day 21 until day 77): sustained and significant BW reduction; white adipose tissue (WAT) depot mass (DIO mice [2]; 10 mg/kg, 11 weeks, mesenteric fat p≤0.05, subcutaneous and epididymal fat p≤0.01 vs vehicle): marked decrease
